Assays:
[1] = Patient with colon cancer (Example IV); type: in vivo, human; conditions: person, 800 mg bid
Text: A person presents with symptoms of constipation and rectal bleeding and is diagnosed with colon cancer.

cyclin D1 = assay: Western blotting for expression of cyclin D1 (test (c)); type: cell-based, human; conditions: for Test (c) at least 50% downregulation of expression of cyclin D1: positive in 184B5, 184B5/HER cells, 24 h, Western blot
Experimental: Cyclin D1 is a protein that is important in regulating cell proliferation and is described in Ortega, S., et al, Biochimica et Biophysica Acta 1602, 73-87, (2002), the whole of which is incorporated by reference. […] Effects on expression of cyclin D1 was investigated in 184B5, 184B5/HER, HCA7, HCT116, SKBR3 and BT474 cells. The expression was assessed in cells after treatment with test compound or vehicle using 5×10^4 cells for 24 hours. Western blotting technique was used as follows to assess the expression levels of cyclin D1 in cells treated with the test compound and compared to levels in cells treated with vehicle alone. Cell lysates were prepared by treating cells with lysis buffer as described above. […] The resolved proteins were transferred onto nitrocellulose sheets. The nitrocellulose membrane was then incubated with anti-cyclin D1 antiserum. Secondary antibody to IgG conjugated to horseradish peroxidase was used. The various antisera were purchased from Santa Cruz Biotechnology, Inc., CA. The blots were probed with the Renaissance Western blot detection system according to the manufacturer's instructions (PerkinElmer Life Sciences, Boston, Mass.).

[2] = system: tcf/lef/β-catenin-mediated promoter activation; assay: TOPflash/FOPflash reporter assay for tcf/lef/β-catenin-mediated promoter activation (test (f)); type: cell-based, human; conditions: positive in 184B5, 184B5/HER, HCA7, HCT116, SKBR3 and BT474 cells; 24 h
Text: Tcf/lef/β-catenin is a transcription factor complex that has been implicated in the regulation of genes involved in carcinogenesis. Increased tcf/lef/β-catenin-mediated gene expression has been linked to pathogenesis of colon cancer. Tcf/lef/β-catenin is described in Barker, N., et al, Adv. Cancer Res. 77, 1-24 (2000), the whole of which is incorporated herein by reference.
Cells (cell lines were 184B5, 184B5/HER, HCA7, HCT116, SKBR3 and BT474) were split into 6 well dishes and the next day were transiently transfected using 8 μg of LipofectAMlNE as per the manufacturer's instructions (Invitrogen, CA). 1.8 μg/dish of the wildtype Tcf/Lef reporter plasmid TOP flash or the mutant plasmid FOP flash was transfected into the cells and 0.2 μg of pSV-β-galactosidase. FOPflash differs from TOPflash by the mutation of its Tcf binding sites and serves to differentiate Tef/-catenin-mediated signaling from background (Upstate Biotechnology, Inc.). Cells were incubated overnight and were treated for 24 hours with either vehicle or test compound. Luciferase activity in the extracts was measured as described above and was corrected for background by subtraction of FOP-FLASH values from corresponding TOP-FLASH values.

[3] = Patient with Alzheimer's disease (Example V); type: in vivo, human; conditions: person two, 200 mg bid
Experimental: person two presents with symptoms of memory loss and is diagnosed with Alzheimer's disease. The patient is given and maintained on a 200 mg bid dose of indomethacin heptyl ester. The progression of the symptoms stops.

[4] = Patient with cervical intraepithelial neoplasia, HPV 16 detected (Example VIII); type: in vivo, human; conditions: person, 0.5% in a cream on sponge/cervical cap, six months
Text: A person presents to their gynecologist for evaluation. […] On biopsy, the patient is found to have cervical intraepithelial neoplasia. HPV 16 is detected. […] The SC-236 is discontinued with no recurrence of cervical intraepithelial neoplasia.

[5] = Patient with oral premalignant lesion (Example VII); type: in vivo, human; conditions: person, lozenges 100 mg twice a day for six months
Text: A person presents with a white patch on their tongue and is diagnosed as having an oral premalignant lesion.

| Structure (SMILES) | rate of progression of the colon cancer [1] | Test (c) at least 50% downregulation of expression of cyclin D1 (cyclin D1) | Test (f) at least 50% inhibition of tcf/lef/β-catenin-mediated promoter activation [2] | progression of the symptoms (memory loss, Alzheimer's disease) [3] | decrease in level of cyclin D1 (cyclin D1; 184B5 cells, 24 hours, Western blotting) | repeat biopsy finding of cervical intraepithelial neoplasia [4] | outcome of oral premalignant lesion [5] |
| --- | --- | --- | --- | --- | --- | --- | --- |
| Cc1ccc(-c2cc(C(F)(F)F)nn2-c2ccc(S(N)(=O)=O)cc2)cc1 [Celecoxib] | decreases | + (A plus sign in the table indicates a positive result, that is meeting the test for each cell line as indicated above as providing a positive result) | + (A plus sign in the table indicates a positive result, that is meeting the test for each cell line as indicated above as providing a positive result) |  |  |  |  |
| COc1ccc(OC(=O)Cc2c(C)n(C(=O)c3ccc(Cl)cc3)c3ccc(OC)cc23)cc1 [Indomethacin Analog 3, 1-(p-chlorobenzoyl)-5-methoxy-2-methyl-1H-indole-3-acetic acid, 4-methoxyphenyl ester] |  |  | + (A plus sign in the table indicates a positive result, that is meeting the test for each cell line as indicated above as providing a positive result) |  |  |  |  |
| CCCCCCCOC(=O)Cc1c(C)n(C(=O)c2ccc(Cl)cc2)c2ccc(OC)cc12 [Indomethacin Analog 1, indomethacin heptyl ester] |  |  | + (A plus sign in the table indicates a positive result, that is meeting the test for each cell line as indicated above as providing a positive result) | stops |  |  |  |
| CS(=O)(=O)c1ccc(-n2nc(C(F)(F)F)cc2-c2ccc(F)cc2)cc1 [SC-58125, 4-[5-(4-fluorophenyl)-3-(trifluoromethyl)-1H-pyrazol-1-yl]benzenemethylsulfone] |  | + (A plus sign in the table indicates a positive result, that is meeting the test for each cell line as indicated above as providing a positive result) | + (A plus sign in the table indicates a positive result, that is meeting the test for each cell line as indicated above as providing a positive result) |  |  |  |  |
| NS(=O)(=O)c1ccc(-n2nc(C(F)(F)F)cc2-c2ccc(Cl)cc2)cc1 [SC-236, 4-[5-(4-chlorophenyl)-3-(trifluoromethyl)-1H-pyrazol-1-yl]benzenesulfonamide] | decreases | + (A plus sign in the table indicates a positive result, that is meeting the test for each cell line as indicated above as providing a positive result) | + (A plus sign in the table indicates a positive result, that is meeting the test for each cell line as indicated above as providing a positive result) |  | more than 50% | no further evidence of cervical intraepithelial neoplasia | resolution of the premalignant lesion |

Source: US20050031537A1, “Multifunctional COX-2 inhibitors” (priority 2002, published 2005)
